{
  "source": "ChEMBL document CHEMBL5550186",
  "about": "“Exploring the Potential of Cyclic Peptidyl Antitumor Agents Derived from Natural Macrocyclic Peptide Phakellistatin 13” (J Med Chem, 2024)",
  "key": {"MDA-MB-231": {"test_system": "MDA-MB-231", "assay": "Antiproliferative activity against human MDA-MB-231 cells incubated for 48 hrs by MTT assay", "assay_type": "functional, cell-based", "conditions": "MDA-MB-231, 48 h"}, "HepG2 [1]": {"test_system": "HepG2", "assay": "Induction of morphological changes in human HepG2 cells assessed as cell shrinkage at 40 uM measured after 12 to 24 hrs by fluorescence inverted microscopic analysis", "assay_type": "functional, cell-based", "conditions": "time 12-24 hrs"}, "HepG2 [2]": {"test_system": "HepG2", "assay": "Induction of morphological changes in human HepG2 cells assessed as appearance of round morphology at 40 uM measured after 12 to 24 hrs by fluorescence inverted microscopic analysis", "assay_type": "functional, cell-based", "conditions": "time 12-24 hrs"}, "HepG2 [3]": {"test_system": "HepG2", "assay": "Induction of morphological changes in human HepG2 cells assessed as appearance of luminous morphology at 40 uM measured after 12 to 24 hrs by fluorescence inverted microscopic analysis", "assay_type": "functional, cell-based", "conditions": "time 12-24 hrs"}, "HepG2 [4]": {"test_system": "HepG2", "assay": "Induction of morphological changes in human HepG2 cells assessed as increase in cell death at 40 uM measured after 48 hrs by fluorescence inverted microscopic analysis", "assay_type": "functional, cell-based"}, "HepG2 [5]": {"test_system": "HepG2", "assay": "Induction of apoptosis in human HepG2 cells assessed as viable cells at 10 uM incubated for 48 hrs by annexin V-FITC/PI staining based flow cytometry analysis (reference value: 99.3%)", "assay_type": "functional", "conditions": "read-out: Activity"}, "HepG2 [6]": {"test_system": "HepG2", "assay": "Induction of apoptosis in human HepG2 cells assessed as early apoptotic cells at 5 uM incubated for 48 hrs by annexin V-FITC/PI staining based flow cytometry analysis (reference value: 0.50%)", "assay_type": "functional"}, "HepG2 [7]": {"test_system": "HepG2", "assay": "Induction of apoptosis in human HepG2 cells assessed as necrotic cells at 10 uM incubated for 48 hrs by annexin V-FITC/PI staining based flow cytometry analysis (reference value: 0%)", "assay_type": "functional"}, "HepG2 [8]": {"test_system": "HepG2", "assay": "Induction of apoptosis in human HepG2 cells assessed as necrotic cells at 20 uM incubated for 48 hrs by annexin V-FITC/PI staining based flow cytometry analysis (reference value: 0%)", "assay_type": "functional"}, "HepG2 [9]": {"test_system": "HepG2", "assay": "Induction of cell cycle arrest in human HepG2 cells assessed as accumulation of cells at <2N phase at 5 uM incubated for 48 hrs by PI staining based flow cytometry analysis (reference value: 0.027%)", "assay_type": "functional"}, "HepG2 [10]": {"test_system": "HepG2", "assay": "Induction of cell cycle arrest in human HepG2 cells assessed as accumulation of cells at <2N phase at 10 uM incubated for 48 hrs by PI staining based flow cytometry analysis (reference value: 0.027%)", "assay_type": "functional"}, "HepG2 [11]": {"test_system": "HepG2", "assay": "Induction of cell cycle arrest in human HepG2 cells assessed as accumulation of cells at <2N phase at 20 uM incubated for 48 hrs by PI staining based flow cytometry analysis (reference value: 0.027%)", "assay_type": "functional"}, "HepG2 [12]": {"test_system": "HepG2", "assay": "Induction of cell cycle arrest in human HepG2 cells assessed as assessed as accumulation of cells at 2N phase at 10 uM incubated for 12 hrs by PI staining based flow cytometry analysis (reference value: 26.0%)", "assay_type": "functional"}, "HepG2 [13]": {"test_system": "HepG2", "assay": "Induction of cell cycle arrest in human HepG2 cells assessed as accumulation of cells at S phase at 20 uM incubated for 48 hrs by PI staining based flow cytometry analysis (reference value: 39.6%)", "assay_type": "functional"}, "HepG2 [14]": {"test_system": "HepG2", "assay": "Induction of cell cycle arrest in human HepG2 cells assessed as accumulation of cells at G2/M phase at 10 uM incubated for 24 hrs by PI staining based flow cytometry analysis (reference value: 6.38%)", "assay_type": "functional"}, "HepG2 [15]": {"test_system": "HepG2", "assay": "Induction of cell cycle arrest in human HepG2 cells assessed as accumulation of cells at G2/M phase at 20 uM incubated for 48 hrs by PI staining based flow cytometry analysis (reference value: 6.38%)", "assay_type": "functional"}, "HepG2 [16]": {"test_system": "HepG2", "assay": "Induction of cell cycle arrest in human HepG2 cells assessed as assessed as accumulation of cells at >G2/M phase at 10 uM incubated for 12 hrs by PI staining based flow cytometry analysis (reference value: 28.0%)", "assay_type": "functional"}, "HepG2 [17]": {"test_system": "HepG2", "assay": "Induction of cell cycle arrest in human HepG2 cells assessed as accumulation of cells at >G2/M phase at 10 uM incubated for 24 hrs by PI staining based flow cytometry analysis (reference value: 28.0%)", "assay_type": "functional"}, "HepG2 [18]": {"test_system": "HepG2", "assay": "Downregulation of MDM2 level in human HepG2 cells at 5 to 20 uM measured after 48 hrs by Western blot analysis", "assay_type": "functional, cell-based", "conditions": "dose 5-20 µM"}, "HepG2 [19]": {"test_system": "HepG2", "assay": "Upregulation of cytochrome c level in human HepG2 cells at 5 to 20 uM measured after 48 hrs by Western blot analysis", "assay_type": "functional, cell-based", "conditions": "dose 5-20 µM"}, "Cell membrane [20]": {"test_system": "Cell membrane", "assay": "Induction of mitochondrial membrane potential loss in human HepG2 cells assessed as decrease in fluorescence measured after 48 hrs by Rhodamine 123 staining based flow cytometry", "assay_type": "cell membranes", "conditions": "dose 5-20 µM"}, "Cell membrane [21]": {"test_system": "Cell membrane", "assay": "Induction of mitochondrial membrane potential loss in human HepG2 cells assessed as decrease in fluorescence at 10 uM measured after 24 hrs by Rhodamine 123 staining based flow cytometry (reference value: 66.8%)", "assay_type": "cell membranes", "set-up": "scale not given: the % may be the effect or the level left"}, "Cell membrane [22]": {"test_system": "Cell membrane", "assay": "Induction of mitochondrial membrane potential loss in human HepG2 cells assessed as decrease in fluorescence at 10 uM by Rhodamine 123 staining based flow cytometry", "assay_type": "cell membranes", "conditions": "time 12-48 hrs, TDE = time-dependent effect"}, "HepG2 [23]": {"test_system": "HepG2", "assay": "Induction of apoptosis in human HepG2 cells assessed as increase in intracellular calcium level at 10 uM measured after 24 hrs by fluo-3AM dye based flow cytometry analysis", "assay_type": "functional, cell-based"}, "[24]": {"assay": "Mutagenicity in Salmonella typhimurium by Ames test", "assay_type": "toxicity", "conditions": "salmonella enterica subsp. enterica serovar typhimurium"}, "[25]": {"assay": "Toxicity in Balb/c mouse assessed as effect on body weight at 6 mg/kg, iv measured every two days for 14 days", "assay_type": "organism-based", "conditions": "in vivo, 336 h, time 14 day"}, "[26]": {"assay": "Toxicity in Balb/c mouse assessed as effect on tumor at 6 mg/kg, iv measured after 14 days by H and E staining based analysis", "assay_type": "organism-based", "conditions": "in vivo, 336 h, time 14 day"}, "[27]": {"assay": "Upregulation of SESN2 expression level in human HepG2 cells assessed as fold change by KEGG enrichment analysis", "assay_type": "functional"}, "[28]": {"assay": "Upregulation of PGF expression level in human HepG2 cells assessed as fold change by KEGG enrichment analysis", "assay_type": "functional"}, "[29]": {"assay": "Upregulation of DDIT3 expression level in human HepG2 cells assessed as fold change by KEGG enrichment analysis", "assay_type": "functional"}, "[30]": {"assay": "Upregulation of NGFR expression level in human HepG2 cells assessed as fold change by KEGG enrichment analysis", "assay_type": "functional"}, "[31]": {"assay": "Upregulation of GADD45A expression level in human HepG2 cells assessed as fold change by KEGG enrichment analysis", "assay_type": "functional"}, "[32]": {"assay": "Upregulation of GADD45B expression level in human HepG2 cells assessed as fold change by KEGG enrichment analysis", "assay_type": "functional"}, "[33]": {"assay": "Upregulation of SOCS1 expression level in human HepG2 cells assessed as fold change by KEGG enrichment analysis", "assay_type": "functional"}, "[34]": {"assay": "Upregulation of DET1 expression level in human HepG2 cells assessed as fold change by KEGG enrichment analysis", "assay_type": "functional"}, "[35]": {"assay": "Upregulation of TRAF1 expression level in human HepG2 cells assessed as fold change by KEGG enrichment analysis", "assay_type": "functional"}, "[36]": {"assay": "Effect on MAML3 expression level in human HepG2 cells assessed as fold change by KEGG enrichment analysis", "assay_type": "functional"}, "[37]": {"assay": "Downregulation of RSPO3 expression level in human HepG2 cells assessed as fold change by KEGG enrichment analysis", "assay_type": "functional"}, "[38]": {"assay": "Apparent permeability of compound", "assay_type": "ADME", "conditions": "not told"}},
  "note": "Active and inactive are the calls of the source. The rule behind the calls is not given here.",
  "data": [
    {"smiles": "CC(C)C[C@H]1NC(=O)[C@H]([C@@H](C)OCc2ccccc2)NC(=O)[C@H]2CCCN2C(=O)CN2C(=O)c3ccccc3[C@@]2(O)CN(Cc2ccccc2)C(=O)[C@H](Cc2ccccc2)NC(=O)[C@H]2CCCN2C(=O)[C@H](Cc2c[nH]c3ccccc23)NC1=O", "values": [
      {"measurement": "IC50", "setting": "MDA-MB-231", "value": 12.8, "unit": "µM"},
      {"measurement": "Activity", "setting": "HepG2 [1]", "value": "Active"},
      {"measurement": "Activity", "setting": "HepG2 [2]", "value": "Active"},
      {"measurement": "Activity", "setting": "HepG2 [3]", "value": "Active"},
      {"measurement": "Activity", "setting": "HepG2 [4]", "value": "Active"},
      {"measurement": "viability at 10 µM", "setting": "HepG2 [5]", "value": 68.1, "unit": "%"},
      {"measurement": "Activity", "setting": "HepG2 [6]", "value": 16.8, "unit": "%"},
      {"measurement": "Activity", "setting": "HepG2 [7]", "value": 0, "unit": "%"},
      {"measurement": "Activity", "setting": "HepG2 [8]", "value": 0.02, "unit": "%"},
      {"measurement": "Activity", "setting": "HepG2 [9]", "value": 37.3, "unit": "%"},
      {"measurement": "Activity", "setting": "HepG2 [10]", "value": 20.2, "unit": "%"},
      {"measurement": "Activity", "setting": "HepG2 [11]", "value": 28.1, "unit": "%"},
      {"measurement": "Activity", "setting": "HepG2 [12]", "value": 27.8, "unit": "%"},
      {"measurement": "Activity", "setting": "HepG2 [13]", "value": 11.7, "unit": "%"},
      {"measurement": "Activity", "setting": "HepG2 [14]", "value": 13, "unit": "%"},
      {"measurement": "Activity", "setting": "HepG2 [15]", "value": 37.1, "unit": "%"},
      {"measurement": "Activity", "setting": "HepG2 [16]", "value": 4.68, "unit": "%"},
      {"measurement": "Activity", "setting": "HepG2 [17]", "value": 13.5, "unit": "%"},
      {"measurement": "Activity", "setting": "HepG2 [18]", "value": "Active"},
      {"measurement": "Activity", "setting": "HepG2 [19]", "value": "Active"},
      {"measurement": "Activity", "setting": "Cell membrane [20]", "value": "Dose-Dependent Effect"},
      {"measurement": "Activity", "setting": "Cell membrane [21]", "value": 45.4, "unit": "%"},
      {"measurement": "Activity", "setting": "Cell membrane [22]", "value": "Tde"},
      {"measurement": "Activity", "setting": "HepG2 [23]", "value": "Active"},
      {"measurement": "Activity", "setting": "[24]", "value": "Non-Toxic"},
      {"measurement": "Activity", "setting": "[25]", "value": "Non-Toxic"},
      {"measurement": "Activity", "setting": "[26]", "value": "Non-Toxic"},
      {"measurement": "fold change (FC)", "setting": "[27]", "value": 2.86},
      {"measurement": "fold change (FC)", "setting": "[28]", "value": 2.135},
      {"measurement": "fold change (FC)", "setting": "[29]", "value": 1.968},
      {"measurement": "fold change (FC)", "setting": "[30]", "value": 1.584},
      {"measurement": "fold change (FC)", "setting": "[31]", "value": 1.519},
      {"measurement": "fold change (FC)", "setting": "[32]", "value": 1.146},
      {"measurement": "fold change (FC)", "setting": "[33]", "value": 1.707},
      {"measurement": "fold change (FC)", "setting": "[34]", "value": 1.448},
      {"measurement": "fold change (FC)", "setting": "[35]", "value": 1.094},
      {"measurement": "fold change (FC)", "setting": "[36]", "value": -1.198},
      {"measurement": "fold change (FC)", "setting": "[37]", "value": -1.578},
      {"measurement": "Papp", "setting": "[38]", "value": 0.416, "unit": "×10⁻⁶ cm/s"}
    ]}
  ]
}
